Results reported in ChEMBL document CHEMBL5104113, “Biophysical Survey of Small-Molecule β-Catenin Inhibitors: A Cautionary Tale” (J Med Chem, 2022).

Legend:
[1] = biological target: T1, Catenin beta-1 (Homo sapiens) (UniProt P35222); conditions: dose 125.0 µM
T1 sequence (whole entry): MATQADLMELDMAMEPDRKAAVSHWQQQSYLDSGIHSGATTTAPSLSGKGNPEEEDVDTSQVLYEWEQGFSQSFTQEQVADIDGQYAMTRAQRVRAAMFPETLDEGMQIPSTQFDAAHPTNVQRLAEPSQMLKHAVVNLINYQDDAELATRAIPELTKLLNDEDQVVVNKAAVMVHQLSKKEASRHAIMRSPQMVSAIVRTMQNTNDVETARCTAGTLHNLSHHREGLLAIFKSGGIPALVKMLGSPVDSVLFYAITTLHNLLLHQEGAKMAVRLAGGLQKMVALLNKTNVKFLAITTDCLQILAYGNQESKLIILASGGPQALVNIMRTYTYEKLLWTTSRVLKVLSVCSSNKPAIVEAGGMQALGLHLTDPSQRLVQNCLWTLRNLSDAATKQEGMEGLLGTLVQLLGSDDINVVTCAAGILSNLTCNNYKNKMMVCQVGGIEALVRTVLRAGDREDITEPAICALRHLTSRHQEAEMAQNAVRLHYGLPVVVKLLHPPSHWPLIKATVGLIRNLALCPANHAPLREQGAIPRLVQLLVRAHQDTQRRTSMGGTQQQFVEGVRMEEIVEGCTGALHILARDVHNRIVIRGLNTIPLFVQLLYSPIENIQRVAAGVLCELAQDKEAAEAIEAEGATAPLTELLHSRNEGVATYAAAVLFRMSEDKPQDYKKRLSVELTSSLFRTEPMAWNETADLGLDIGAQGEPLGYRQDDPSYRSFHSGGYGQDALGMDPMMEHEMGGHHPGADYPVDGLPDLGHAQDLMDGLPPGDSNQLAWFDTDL
Description: Thermal stabilization of wildtype beta catenin ARD (148 to 662 residues) (unknown origin) assessed as change in melting temperature at 125 uM by DSF method

A549 = test: Antiproliferative activity against human A549 cells expressing wnt2 incubated for 72 hrs by celltitre 96 non-radioactive cell proliferation assay kit; assay type: functional, cell-based; conditions: A549, 72 h
[2] = biological target: T1, Catenin beta-1 (Homo sapiens)
Description: Binding affinity to beta catenin ARD (142 to 686 residues) (unknown origin) assessed as change in entropy by VP-ITC method

Catenin beta-1 [3] = biological target: T2, Catenin beta-1 (Homo sapiens, UniProt P35222)
T2 sequence (P35222 whole entry): T1 sequence (whole entry)
Description: Binding affinity to beta catenin ARD (142 to 686 residues) (unknown origin) assessed as inhibition constant by fluorescence polarisation assay

[4] = Inhibition of Wnt/beta-catenin (unknown origin) transcriptional activity pathway transfected human H1299 cells by measuring luciferase activity after 24 hrs by TOP-flash luciferase reporter gene assay; assay type: cell-based; conditions: nci-h1299
[5] = biological target: Poly(ADP-ribose) glycohydrolase (Homo sapiens, UniProt Q86W56); test: Binding affinity to human PARG assessed as dissociation constant by SPR analysis
Catenin beta-1 [6] = biological target: T2, Catenin beta-1; test: Inhibition of beta catenin in HEK293 cells by TOPflash luciferase reporter assay; assay type: cell-based
[7] = Inhibition of Tcf in HEK293 cells by TOPflash luciferase reporter assay; assay type: cell-based; conditions: Homo sapiens
TCF4-CTNNB1 complex = biological target: T3, TCF4-CTNNB1 complex (Homo sapiens, UniProt P35222+Q9NQB0); test: Inhibition of beta catenin/recombinant GST tagged Tcf4 protein protein interaction in human HCT-116 cells; assay type: cell-based
T3 sequence (P35222 whole entry): T1 sequence (whole entry)
T3 sequence (P15884 whole entry): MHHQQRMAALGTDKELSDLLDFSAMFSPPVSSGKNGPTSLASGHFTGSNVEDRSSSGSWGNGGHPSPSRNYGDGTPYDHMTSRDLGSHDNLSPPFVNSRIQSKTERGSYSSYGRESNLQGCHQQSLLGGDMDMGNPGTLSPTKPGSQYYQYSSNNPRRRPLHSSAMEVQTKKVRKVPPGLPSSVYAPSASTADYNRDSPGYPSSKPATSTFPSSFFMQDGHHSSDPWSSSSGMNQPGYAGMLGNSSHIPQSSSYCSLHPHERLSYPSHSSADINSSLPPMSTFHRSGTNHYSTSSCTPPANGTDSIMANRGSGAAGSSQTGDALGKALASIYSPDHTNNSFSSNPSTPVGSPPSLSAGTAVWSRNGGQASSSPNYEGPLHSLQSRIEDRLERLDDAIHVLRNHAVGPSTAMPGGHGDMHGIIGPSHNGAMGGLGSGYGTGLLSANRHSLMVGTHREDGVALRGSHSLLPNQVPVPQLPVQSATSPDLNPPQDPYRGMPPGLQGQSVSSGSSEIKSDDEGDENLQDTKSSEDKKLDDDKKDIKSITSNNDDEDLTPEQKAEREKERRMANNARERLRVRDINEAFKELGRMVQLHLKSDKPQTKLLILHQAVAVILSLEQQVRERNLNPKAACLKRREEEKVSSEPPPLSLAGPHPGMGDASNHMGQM

[8] = Downregulation of c-Myc protein expression level in human PANC-1 cells; assay type: functional, cell-based
[9] = Downregulation of c-Myc protein expression level in human ASPC1 cells; assay type: functional, cell-based
SW480 [10] = test: Cytotoxicity against human SW480 cells assessed as cell viability incubated for 72 hrs by cell titre glo assay; assay type: functional, cell-based; conditions: SW480, 72 h
SW-620 = test: Cytotoxicity against human SW-620 cells assessed as cell viability incubated for 72 hrs by cell titre glo assay; assay type: functional, cell-based; conditions: SW-620, 72 h
HCT-116 [11] = test: Cytotoxicity against human HCT-116 cells assessed as cell viability incubated for 72 hrs by cell titre glo assay; assay type: functional, cell-based; conditions: HCT-116, 72 h
SW480 [12] = test: Inhibition of cell growth in human SW480 cells incubated for 24 hrs by WST-1 assay; assay type: functional
HCT-116 [13] = test: Inhibition of cell growth in human HCT-116 cells incubated for 24 hrs by WST-1 assay; assay type: functional
Catenin beta-1 [14] = biological target: T2, Catenin beta-1; test: Binding affinity to N-terminal FLAG tagged beta catenin alpha helix (H1 - 141 to 149 aa) of armadillo repeat domain (unknown origin) by STD/HSQC based NMR analysis
[15] = biological target: T4, beta-catenin-B-cell lymphoma 9 protein complex (Homo sapiens, UniProt P35222); test: Binding affinity to N-terminal FLAG tagged beta catenin (134 to 671 residues)/FLAG tagged BCL9 domain 2 (343 to 396 residues) (unknown origin) protein protein interaction assessed as inhibition constant; assay type: protein-complex assay
T4 sequence (P35222 whole entry): T1 sequence (whole entry)
T4 sequence (O00512 whole entry): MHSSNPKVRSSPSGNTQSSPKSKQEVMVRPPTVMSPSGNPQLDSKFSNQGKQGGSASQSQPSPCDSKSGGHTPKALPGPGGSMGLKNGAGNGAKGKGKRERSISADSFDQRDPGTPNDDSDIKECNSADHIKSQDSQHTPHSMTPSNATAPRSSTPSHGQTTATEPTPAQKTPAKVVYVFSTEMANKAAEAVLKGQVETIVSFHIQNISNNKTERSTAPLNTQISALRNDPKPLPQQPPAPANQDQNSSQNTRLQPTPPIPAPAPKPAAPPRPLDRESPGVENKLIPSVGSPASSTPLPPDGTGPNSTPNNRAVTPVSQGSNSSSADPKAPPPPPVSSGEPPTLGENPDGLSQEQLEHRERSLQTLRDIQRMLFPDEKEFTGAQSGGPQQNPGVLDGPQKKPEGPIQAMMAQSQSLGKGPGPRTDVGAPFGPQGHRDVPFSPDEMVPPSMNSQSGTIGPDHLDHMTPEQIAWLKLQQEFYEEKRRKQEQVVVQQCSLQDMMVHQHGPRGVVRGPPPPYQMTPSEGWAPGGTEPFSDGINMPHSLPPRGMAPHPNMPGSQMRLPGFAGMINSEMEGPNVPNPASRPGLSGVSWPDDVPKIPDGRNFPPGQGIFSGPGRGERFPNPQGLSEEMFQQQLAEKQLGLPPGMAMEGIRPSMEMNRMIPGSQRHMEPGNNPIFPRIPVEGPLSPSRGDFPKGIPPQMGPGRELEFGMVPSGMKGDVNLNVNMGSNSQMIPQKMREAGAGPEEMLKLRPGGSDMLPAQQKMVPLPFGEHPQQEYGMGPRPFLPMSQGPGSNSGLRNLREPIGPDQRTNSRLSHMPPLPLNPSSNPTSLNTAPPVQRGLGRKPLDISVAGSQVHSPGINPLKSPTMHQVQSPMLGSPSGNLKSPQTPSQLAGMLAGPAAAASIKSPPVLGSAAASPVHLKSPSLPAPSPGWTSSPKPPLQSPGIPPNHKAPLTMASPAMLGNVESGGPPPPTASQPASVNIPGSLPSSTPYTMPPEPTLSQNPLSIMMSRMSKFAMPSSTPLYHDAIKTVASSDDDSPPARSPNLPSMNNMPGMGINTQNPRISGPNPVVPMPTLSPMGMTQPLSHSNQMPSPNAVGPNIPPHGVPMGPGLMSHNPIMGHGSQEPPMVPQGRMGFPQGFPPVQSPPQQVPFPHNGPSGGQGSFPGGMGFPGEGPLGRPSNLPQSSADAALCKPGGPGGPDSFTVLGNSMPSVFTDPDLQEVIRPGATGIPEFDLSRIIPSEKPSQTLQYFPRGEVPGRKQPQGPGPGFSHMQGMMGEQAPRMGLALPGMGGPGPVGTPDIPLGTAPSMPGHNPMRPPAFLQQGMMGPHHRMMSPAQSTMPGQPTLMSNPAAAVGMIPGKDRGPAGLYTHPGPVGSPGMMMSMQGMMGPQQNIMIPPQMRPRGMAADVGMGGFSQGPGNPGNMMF

Sequence of Poly(ADP-ribose) glycohydrolase (Q86W56 whole entry): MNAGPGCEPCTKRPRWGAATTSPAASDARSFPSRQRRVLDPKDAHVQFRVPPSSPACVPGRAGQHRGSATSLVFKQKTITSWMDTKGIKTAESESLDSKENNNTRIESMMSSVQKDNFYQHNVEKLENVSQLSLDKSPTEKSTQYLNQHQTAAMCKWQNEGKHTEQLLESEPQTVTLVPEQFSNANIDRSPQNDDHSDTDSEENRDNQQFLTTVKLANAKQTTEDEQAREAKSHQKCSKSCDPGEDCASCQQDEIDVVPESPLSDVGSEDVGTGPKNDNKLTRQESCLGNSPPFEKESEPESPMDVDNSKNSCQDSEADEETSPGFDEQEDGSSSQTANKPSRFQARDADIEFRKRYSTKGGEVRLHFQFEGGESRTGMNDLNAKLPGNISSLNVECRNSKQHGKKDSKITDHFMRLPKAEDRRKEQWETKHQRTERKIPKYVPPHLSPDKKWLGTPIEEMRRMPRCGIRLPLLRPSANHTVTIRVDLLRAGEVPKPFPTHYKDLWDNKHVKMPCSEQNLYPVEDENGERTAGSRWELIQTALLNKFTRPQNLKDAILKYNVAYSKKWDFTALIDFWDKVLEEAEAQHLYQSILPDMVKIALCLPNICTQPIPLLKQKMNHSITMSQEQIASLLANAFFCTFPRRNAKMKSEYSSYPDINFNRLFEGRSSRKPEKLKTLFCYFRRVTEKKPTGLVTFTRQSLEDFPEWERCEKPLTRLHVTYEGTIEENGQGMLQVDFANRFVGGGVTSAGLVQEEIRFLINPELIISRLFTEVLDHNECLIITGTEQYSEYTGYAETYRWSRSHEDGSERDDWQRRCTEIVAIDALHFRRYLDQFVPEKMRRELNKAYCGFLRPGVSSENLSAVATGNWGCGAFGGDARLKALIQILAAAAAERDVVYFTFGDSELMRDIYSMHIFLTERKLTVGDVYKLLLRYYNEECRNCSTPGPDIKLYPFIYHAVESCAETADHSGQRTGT

Compound | ΔTm [1] | further results
Fc1ccc2nc(OCCN3CCCC3)c(C#Cc3ccccc3)nc2c1 | 0.1 °C | IC50 (A549): 10 µM
Cc1ccc2nc(N(C)C)nc(NCc3ccc(C(=O)NCc4ccc(F)cc4)cc3)c2c1 | -0.7 °C | 
Cc1cc(Cl)ccc1/N=C\c1ccc(F)c(Oc2ccccc2)c1 | 0.1 °C | 
CN(C)c1ccc(-c2nc3cc(F)ccc3[nH]2)cc1 | -0.1 °C | 
On1ncc2cc(CCc3nn[nH]n3)ccc21 |  | -TdeltaS [2]: -7.89 kcal/mol; Ki (Catenin beta-1 [3]): 3 µM
O=C1C(Cl)=C(Nc2ccc(S(=O)(=O)Nc3ccccn3)cc2)C(=O)c2ccccc21 |  | IC50 [4]: 2.3 µM
CC(C)(C)NS(=O)(=O)c1ccc2c(c1)C(=O)c1ccccc1C2=O |  | Kd [5]: 0.00145 µM
CCc1cccc2c3c([nH]c12)[C@@](CC)(CC(=O)O)OCC3 [SDX-101] | -0.5 °C | IC50 (Catenin beta-1 [6]): 683 µM; IC50 [7]: 46 µM
O=C(O)c1ccccc1Oc1ccccc1 | -0.1 °C | 
O=C(O)c1ccccc1-c1c2ccc(=O)cc-2oc2cc(O)ccc12 | 0.1 °C | 
COc1c(C[C@H](C)OC(=O)c2c(C)cc(O)cc2O)c2c3c(C[C@H](C)OC(=O)c4c(C)cc(O)cc4O)c(OC)c(=O)c4c(O)cc(OC)c(c5c(OC)cc(O)c(c1=O)c52)c43 |  | IC50 (TCF4-CTNNB1 complex): 10 µM
COc1c(C[C@H](C)OC(=O)Oc2ccc(O)cc2)c2c3c(C[C@H](C)OC(=O)c4ccccc4)c(OC)c(=O)c4c(O)cc(OC)c(c5c(OC)cc(O)c(c1=O)c52)c43 |  | IC50 (TCF4-CTNNB1 complex): 10 µM
COc1cccc(/C=C2/SC(=S)N(CCC(=O)O)C2=O)c1OC | -0.5 °C | 
COc1ccc2[nH]c3c(-c4cccc5ccccc45)nccc3c2c1 | -0.9 °C | IC50 [8]: < 0.5 µM; IC50 [9]: < 0.5 µM
Cn1ncnc2c(=O)n(C)c(=O)nc1-2 | -0.5 °C | 
c1ccc(CCNc2nc(N3CCCCC3)nc3ccccc23)cc1 | -0.6 °C | IC50 (SW480 [10]): 5.9 µM; IC50 (SW-620): 6.7 µM; IC50 (HCT-116 [11]): 6.2 µM
CCc1ccc(-c2nc(CSCC(=O)NCCc3ccccc3)c(C)o2)cc1 | -0.7 °C | 
Cc1ccc(S(=O)(=O)Nc2cccc(C(=O)O)c2)cc1 | -0.5 °C | 
Cc1ccc(/C=N/NC(=O)c2ccccc2Oc2ccccc2)o1 | -0.5 °C | 
O=C(CN1C2=NCCN2c2ccccc21)c1ccc(-c2ccccc2)cc1 | -0.1 °C | GI50 (SW480 [12]): 13.2 µM; GI50 (HCT-116 [13]): 13.9 µM
COC(=O)c1cccc(NS(=O)(=O)c2ccc(C)cc2)c1 | -0.5 °C | 
O=C(Nc1ccc(O[C@H]2CCNC2)c(-c2ccc(F)cc2)c1)c1ccc(O[C@@H]2CCNC2)c(-c2ccc(F)c(F)c2)c1 | -0.5 °C | 
CC(C)c1cc2c(c(O)c1O)[C@@]1(C(=O)O)CCCC(C)(C)[C@@H]1CC2 [CARNOSIC ACID] | -2.7 °C | Kd (Catenin beta-1 [14]): 20 µM; Ki [15]: 3 µM
CN(C)CCOc1nc2ccccc2nc1C#Cc1ccccc1 | 0 °C | 
